Data published in PubChem BioAssay AID602260 (Sanford-Burnham Center for Chemical Genomics, 2012).
Calls of active or inactive are those of the source.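 How the source made its calls: active means mean IC50 at or below 20 µM; inactive means the rest.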

biological target: Polyadenylate-binding protein 1 (Homo sapiens) (UniProt P11940); assay: MLLE binding blockers, Cy5 peptide tracer – biochemical, fluorescence polarization, Cy5-PAM2 peptide, secondary, miRNA deadenylation inhibitor project, dose response (AID 602260); conditions: GST-Mlle / Cy5-PAM2 peptide fluorescence polarization
Sequence (P11940 whole entry, looked up): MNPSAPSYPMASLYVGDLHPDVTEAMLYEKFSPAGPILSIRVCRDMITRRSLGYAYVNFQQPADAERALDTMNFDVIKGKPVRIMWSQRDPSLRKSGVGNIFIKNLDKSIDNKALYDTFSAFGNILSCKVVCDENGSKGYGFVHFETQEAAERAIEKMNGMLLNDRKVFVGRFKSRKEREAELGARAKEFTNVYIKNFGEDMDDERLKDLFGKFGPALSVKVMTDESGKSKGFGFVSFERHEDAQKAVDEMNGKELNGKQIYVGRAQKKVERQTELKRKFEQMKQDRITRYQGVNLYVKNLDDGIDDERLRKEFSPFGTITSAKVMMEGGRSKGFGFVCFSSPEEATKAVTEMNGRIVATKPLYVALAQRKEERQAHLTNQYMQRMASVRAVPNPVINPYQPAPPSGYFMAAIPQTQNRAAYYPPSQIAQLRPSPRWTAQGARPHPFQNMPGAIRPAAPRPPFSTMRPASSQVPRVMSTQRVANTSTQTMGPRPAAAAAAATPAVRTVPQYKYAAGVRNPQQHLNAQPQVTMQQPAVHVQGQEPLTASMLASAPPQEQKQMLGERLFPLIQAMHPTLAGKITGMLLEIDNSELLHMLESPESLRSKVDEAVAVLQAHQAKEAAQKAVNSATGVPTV

IC50, inactive:
COc1ccc(NC(=O)Nc2ccc([N+](=O)[O-])cc2)cn1
C[c-]1[c-](C)[c-](C)[c-](C)[c-]1C.[Fe].c1cc2nccc(N3CCCC3)[c-]2c1 (stereo not drawn) > 66 µM
CCOC(=O)c1c(/N=C/c2cccc([N+](=O)[O-])c2O)sc(C)c1C
